Laboratory results taken from patent publication US12382888B2, “Compositions and methods for modulating immunity in plants” (Boyce Thompson Institute for Plant Research, Inc., priority 2013, dated 2025).
Entries after “also recorded” stand apart in the source; their conditions may differ.

Tests used:
[1] = tested on: asthma in a mouse model system; details: cited from earlier work
[2] = tested on: Pseudomonas syringae pv. tomato DC3000 (Pst); assay: Resistance of Arabidopsis to Pseudomonas syringae pv. tomato DC3000 (bacterial growth); type: in vivo; details: for resistance to virulent Pst DC3000 (bacterial growth): leaf syringe infiltration 0.3 μM 24 hours prior to inoculation, 3 dpi; for resistance to virulent Pst DC3000: leaf treatment at the concentration tested
Botrytis cinerea = assay: Resistance of tomato to Botrytis cinerea B05.01 (detached leaflet assay); type: in vivo; details: tomato cv. M82; root immersion 0.01 μM 48 hours before
C. elegans = details: cited from earlier work; for sex pheromone activity: mixture of three ascarosides
[3] = tested on: ovalbumin-specific T-helper cell responses; details: mice; cited from earlier work
PR-1 [4] = assay: PR-1 expression in Arabidopsis leaves (semi-quantitative PCR / qRT-PCR); details: for PR-1 expression in Arabidopsis: leaf pretreatment by syringe infiltration, 0.01, 0.3, and 10 μM; for PR-1 expression, ascaroside alone: leaf syringe infiltration (0.01 or 0.3 μM), semi-quantitative PCR
PR-1 [5] = assay: PR-1 protein/transcript induction in tobacco leaves (immunoblot, RT-PCR); details: low concentrations of ascaroside
Description: Four-weeks old tobacco plants were syringe-infiltrated with buffer, SA, or a mixture of SA (50 μM or 500 μM) and decreasing concentration of ascr #18 (10, 0.3, and 0.01 μM). PR-1 was assayed 48 hours after treatment by immunoblot using anti-PR-1 antibody.
PR-1 expression was analyzed 48 hp SA treatment.
To determine whether ascr #18 affects levels of the prototypic SA-responsive PR-1 gene/protein, tobacco plants were treated with varying concentrations of ascr #18 in the presence or absence of SA (FIG. 2).

PDF1.2 = PDF1.2 expression in Arabidopsis leaves (semi-quantitative PCR / qRT-PCR); details: for PDF1.2 expression in Arabidopsis: leaf pretreatment by syringe infiltration, 0.01, 0.3, and 10 μM; for PDF1.2 expression, ascaroside alone: leaf syringe infiltration (0.01 or 0.3 μM), semi-quantitative PCR
Heterodera schachtii = assay: Arabidopsis cyst nematode infection assay; type: in vivo; details: higher concentrations than 10 nM
M. incognita = assay: Arabidopsis root knot nematode infection assay; type: in vivo, Meloidogyne incognita; details: higher concentrations than 10 nM
[6] = tested on: Pseudomonas syringae pv. tabaci; assay: Resistance of tobacco to Pseudomonas syringae pv. tabaci (bacterial growth); details: leaves treated with 250 μM SA alone
[7] = ascaroside at low concentrations in combination with SA (50 μM)
[8] = higher concentration of ascaroside with SA (50 μM)

Compound: CC1O[C@@H](O[C@H](C)CCCCC(=O)O)C(O)C[C@H]1O (stereo partly shown) [ascr #1]
- development of asthma [1]: strongly suppressed the development of asthma

Compound: CC1O[C@@H](O[C@H](C)CCCCCCCCC(=O)NCCO)C(O)C[C@H]1O (stereo partly shown) [easc #18]
- resistance to virulent Pst DC3000 (bacterial growth) [2]: enhances resistance
- resistance to B. cinerea (lesion size 3 dpi) (Botrytis cinerea): enhanced resistance

Compound: CC(=O)CC[C@@H](C)O[C@@H]1OC(C)[C@H](O)CC1O (stereo partly shown) [ascr #2, reference compound]
- sex pheromone activity (C. elegans): active at low nanomolar concentrations

Compound: CC1O[C@@H](O[C@H](C)CCCC/C=C/C(=O)O)C(O)C[C@H]1O (stereo partly shown) [ascr #3]
- resistance to virulent Pst DC3000 (bacterial growth) [2]: enhanced resistance
- ovalbumin-specific T-helper cell responses [3]: no significant effect
- response of hermaphrodites (C. elegans): repels hermaphrodites
- sex pheromone activity (C. elegans): active at low nanomolar concentrations
- SA-induced PR-1 expression (PR-1 [4]; [7]): enhances PR-1 expression induced by SA
- SA-induced PR-1 expression (PR-1 [4]; [8]): reduces the SA-induced PR-1 expression
- PR-1 expression in Arabidopsis (PR-1 [4]): +
- PR-1 expression, ascaroside alone (PR-1 [4]): induces PR-1 expression; also recorded: induced expression; also recorded: altered
- PR-1 expression in tobacco cv. W38 (PR-1 [5]): did not significantly increase PR-1 expression
- PDF1.2 expression in Arabidopsis (PDF1.2): +
- PDF1.2 expression, ascaroside alone (PDF1.2): induces PDF1.2 expression; also recorded: induced expression; also recorded: altered

Compound: CC1O[C@@H](O[C@H](C)CCCCCCC(=O)O)C(O)C[C@H]1O (stereo partly shown) [ascr #10]
- resistance to virulent Pst DC3000 [2]: did not significantly enhance resistance
- response of hermaphrodites (C. elegans): strongly attracts hermaphrodites
- SA-induced PR-1 expression (PR-1 [4]; [7]): enhances PR-1 expression induced by SA
- PR-1 expression, ascaroside alone (PR-1 [4]): induces PR-1 expression; also recorded: altered
- PR-1 expression in tobacco cv. W38 (PR-1 [5]): did not significantly increase PR-1 expression
- PDF1.2 expression, ascaroside alone (PDF1.2): induces PDF1.2 expression; also recorded: altered

Compound: CC1O[C@@H](O[C@H](C)CCCC/C=C/C(=O)O)C(O)C[C@H]1OC(=O)c1ccc(O)cc1 (stereo partly shown) [hbas #3, reference compound]
- promotion of aggregation behaviors (C. elegans): active at femtomolar concentrations

Compound: CC1O[C@@H](O[C@H](C)CC/C=C/C(=O)Nc2ccc(C(=O)O)cc2)C(O)C[C@H]1O (stereo partly shown) [ascr #8]
- sex pheromone activity (C. elegans): active at low nanomolar concentrations

Compound: CC1O[C@@H](O[C@H](C)CC/C=C/C(=O)O)C(O)C[C@H]1O (stereo partly shown) [ascr #7]
- development of asthma [1]: strongly suppressed the development of asthma
- ovalbumin-specific T-helper cell responses [3]: strongly suppresses

Compound: (10R)-(3′R,5′R-dihydroxy-6′S-methyl-(2H)-tetrahydropyran-2-yloxy)-undecanoic Acid [ascr #18]
- infection with H. schachtii (Heterodera schachtii): less effective
- infection with M. incognita (M. incognita): less effective

Compound: C[C@H](CCC(=O)O)O[C@@H]1O[C@@H](C)[C@H](O)C[C@H]1O [ascr #9]
- resistance to virulent Pst DC3000 [2]: did not significantly enhance resistance
- SA-induced PR-1 expression (PR-1 [4]; [7]): enhances PR-1 expression induced by SA
- SA-induced PR-1 expression (PR-1 [4]; [8]): reduces the SA-induced PR-1 expression
- PR-1 expression in Arabidopsis (PR-1 [4]): +
- PR-1 expression, ascaroside alone (PR-1 [4]): induces PR-1 expression; also recorded: induced expression; also recorded: altered
- PR-1 expression in tobacco cv. W38 (PR-1 [5]): did not significantly increase PR-1 expression
- PDF1.2 expression in Arabidopsis (PDF1.2): +
- PDF1.2 expression, ascaroside alone (PDF1.2): induces PDF1.2 expression; also recorded: induced expression; also recorded: altered

Compound: CC1O[C@@H](OCCCCC(=O)O)C(O)C[C@H]1O (stereo partly shown) [oscr #9]
- resistance to virulent Pst DC3000 [2]: did not significantly enhance resistance
- SA-induced PR-1 expression (PR-1 [4]; [7]): enhances PR-1 expression induced by SA
- PDF1.2 expression in Arabidopsis (PDF1.2): −

Compound: O=C(O)c1ccccc1O [SA, salicylic acid, reference compound]
- protection against Pst ([2]; 50 μM SA alone, leaf infiltration): low level of protection
- virulent P.t. growth [6]: reduced levels of virulent P.t. growth
